# Reference: patent publication US12031977B2, “Ex vivo system for determining multiple drug-drug transporter interactions and methods of use thereof” (Massachusetts Institute of Technology, priority 2019, dated 2024)
# Where a name gives a salt, the structure may show the parent alone. Read-outs that look alike come from different tables or passages of the source. d = 2'-deoxy (DNA); r = 2'-OH (RNA)
# Legend:
# P-gp, BCRP, and MRP2 [1] = test: mock screening of model drugs: ex vivo perfusion through porcine small intestine tissue after siRNA knockdown; details: transporter(s) found by siRNA knockdown perfusion screen
# Source text: (§4) Pig tissue was freshly sourced from local slaughter houses (i.e., Leman & Sons, Hilltown Pork, and Blood Farm). Small intestinal tissue was isolated from intact gastrointestinal tract immediately after euthanasia, and dissected longitudinally. A series of washes with PBS supplemented with 5% Antibiotic-Antimycotic solution (Thermo Fisher Scientific) was applied to the tissue until clean under sterile conditions. Then, the tissue was mounted on a device filled with PBS (5% Antibiotic-Antimycotic) solution and cultured at 37° C. incubation with 5% CO2 supplement.
# (§5) siRNA duplex solution was diluted into PBS solution to a final concentration of 1 μM. […] Tissue was cultured for 24 hours before the perfusion assay.
# (§6) The device consists of a bottom reservoir plate and an upper load plate. Both plates were made by laser cutting (Universal Laser Systems VLS6.60) a standard 48-well plate outline and well pattern (Corning 48 well plate, transparent) as well as magnet holes onto an acrylic sheet (McMaster-Carr 1/4″ thickness). Neodymium magnets (K&J Magnetics Cylinder, 3/16″× 3/16″, N52, NI) were press fitted into the magnet holes of both plates. Seal film (Thermo) was applied to seal the bottoms of the wells of the reservoir plate, and PBS solution was loaded into each well. Then, tissue was placed on top of the reservoir plate and the upper load plate was laid on top of the tissue. The magnets were oriented to align and attract the two plates together, ensuring a strong seal between the wells.
# (§7) For ex vivo perfusion study, the detection of each drug is based on either fluorescent or absorbance measurements according to the literature. A 1 mg/mL drug stock was prepared for each drug in PBS (pH 7.4). For water-insoluble drugs, a final concentration of DMSO in PBS was used to solubilize drugs.
# P-gp, BCRP, or MRP2 = test: in vivo pharmacokinetic study with oral transport inhibitor pre-treatment; details: oral gavage, serum, 60 minutes; verapamil for P-gp, imatinib for BCRP, or probenecid for MRP2; p<0.05
# Pgp, BCRP, MRP2 = details: cited from earlier work
# P-gp [2] = biological target: T1, P-gp (Sus scrofa, UniProt K7GMM7); test: ex vivo perfusion versus altered P-gp expression; format: in vitro ADME, porcine
# T1 construct: Small intestinal tissue was isolated from intact gastrointestinal tract immediately after euthanasia; from tissue; host or cells: porcine small intestine explant, P-gp level lowered by graded siRNA doses
# Source text: (§1) Next perfusion of drugs that are known to be substrates for multiple transporters was studied. […] To be able to delineate such effects, it was aimed to down regulate multiple transporters simultaneously. Two siRNAs targeting P-gp and BCRP were co-delivered with varying concentrations of each siRNA and noted that expression levels could be fine-tuned in a dose-dependent, linear fashion (Pearson r=0.79 and 0.96, FIG. 5C). Next, how the simultaneous and gradual down regulation of transporter expression impacts drug perfusion was studied. Perfusion of BCRP-specific substrates increased linearly with reduced BCRP-expression (dauricine R=0.7, hymecromone sulfate R=0.81) but were not affected by altering P-gp expression (p>0.28 one-tailed Z test at maximum siPgp concentration; FIG. 5C).
# BCRP [3] = biological target: T2, BCRP (Sus scrofa, UniProt Q8MIB3); test: ex vivo perfusion versus gradually reduced BCRP expression; format: in vitro ADME, porcine
# T2 construct: Small intestinal tissue was isolated from intact gastrointestinal tract immediately after euthanasia; from tissue; host or cells: porcine small intestine explant, BCRP level lowered by graded siRNA doses
# T2 sequence (Q8MIB3 1-656): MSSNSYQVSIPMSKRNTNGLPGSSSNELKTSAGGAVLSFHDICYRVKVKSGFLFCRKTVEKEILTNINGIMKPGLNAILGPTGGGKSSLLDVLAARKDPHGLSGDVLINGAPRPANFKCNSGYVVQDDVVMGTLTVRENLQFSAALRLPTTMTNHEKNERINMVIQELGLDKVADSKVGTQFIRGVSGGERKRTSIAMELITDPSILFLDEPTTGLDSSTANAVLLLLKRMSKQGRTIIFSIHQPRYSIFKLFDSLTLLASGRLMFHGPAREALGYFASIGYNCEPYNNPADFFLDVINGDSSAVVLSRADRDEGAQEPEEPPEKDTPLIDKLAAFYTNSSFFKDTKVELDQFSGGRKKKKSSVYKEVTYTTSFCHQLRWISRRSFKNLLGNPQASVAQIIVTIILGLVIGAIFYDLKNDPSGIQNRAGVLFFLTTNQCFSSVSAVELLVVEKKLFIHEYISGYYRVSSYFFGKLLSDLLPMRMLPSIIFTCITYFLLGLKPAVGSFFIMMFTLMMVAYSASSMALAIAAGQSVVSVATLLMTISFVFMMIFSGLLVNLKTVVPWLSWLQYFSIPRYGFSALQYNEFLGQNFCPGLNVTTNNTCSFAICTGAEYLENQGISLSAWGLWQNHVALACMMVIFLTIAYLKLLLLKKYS
# Source text: as §1
# BCRP and MRP2 = test: ex vivo perfusion with doxycycline co-treatment
# Procedure: Four candidate drugs that are known substrates of BCRP and MRP2 were manually selected to study whether they could potentially interact with doxycycline.
# As a first-line test (FIG. 10), ex vivo perfusion experiments were conducted to test for changes in absorption when co-administering the candidates with doxycycline.
# cytochrome P450 3A4 = cytochrome P450 3A4 (Homo sapiens, UniProt P08684); details: cited from earlier work
# [4] = biological target: T3, P-gp, BCRP, MRP2, PEPT1, and MCT1 (Sus scrofa, UniProt Q8MIB3); test: ex vivo perfusion of known substrates and non-substrates after knockdown of a single transporter; format: in vitro ADME, porcine; details: other drugs p<0.01
# T3 construct: Small intestinal tissue was isolated from intact gastrointestinal tract immediately after euthanasia; from tissue; host or cells: porcine small intestine explant, single transporter knocked down by siRNA
# T3 sequence (Q8MIB3 1-656): T2 sequence (Q8MIB3 1-656)
# Procedure: If a molecule is transported by a specific transporter, its diffusion across the tissue should be impacted by selectively down regulating that transporter. To validate that the platform accurately captures this behavior, a total of 23 known transporter-drug relationships was tested.
# BCRP [5] = test: siRNA dose versus transporter expression (western-blot); format: cell-based, porcine; details: co-delivery with varying concentrations, 0 to 25 μM
# Procedure: (§2) FIGS. 5A-5B show the level of reduction in P-gp and BCRP drug transporter expression depends on the dose of siRNA (0 to 25 μM) administered to the intestinal tissue explant.
# (§3) Tissue was dissected and snap frozen in liquid nitrogen. Every 1 mg of tissue sample was homogenized in 100 μL of RIPA buffer supplied with protease inhibitor (Roche) by Berkin 24-cycle homogenizer. After centrifugation, the protein concentration from the supernatant was determined by BCA assay (Pierce) according to manufactory protocol. A total of 100 μg of protein was loaded on each lane for western-blotting. Blots were imaged with Bio-rad universal Hood Ii Molecular Imager (1312M) with Chemiluminescence method. Contrast setting was set for auto-contrast for all images.
# as §1, with “Perfusion of BCRP-specific substrates increased linearly with reduced BCRP-expression (dauricine R=0.7, hymecromone sulfate R=0.81) but were not affected by altering P-gp expression (p>0.28 one-tailed Z test at maximum siPgp concentration; FIG. 5C).” left out
# P-gp, BCRP, and MRP2 [6] = system: P-gp, BCRP, and MRP2
# Source text: as §4, §5, §6, §7
# P-gp [7] = test: siRNA dose versus transporter expression (western-blot); format: cell-based, porcine; details: co-delivery with varying concentrations, 0 to 25 μM
# Procedure: as §2, §3
# as §1, with “Perfusion of BCRP-specific substrates increased linearly with reduced BCRP-expression (dauricine R=0.7, hymecromone sulfate R=0.81) but were not affected by altering P-gp expression (p>0.28 one-tailed Z test at maximum siPgp concentration; FIG. 5C).” left out
# [8] = transporter(s) reported in previous literature for the drug
# cytochrome P450 3A4, sequence (P08684 whole entry, the tested form may be a part): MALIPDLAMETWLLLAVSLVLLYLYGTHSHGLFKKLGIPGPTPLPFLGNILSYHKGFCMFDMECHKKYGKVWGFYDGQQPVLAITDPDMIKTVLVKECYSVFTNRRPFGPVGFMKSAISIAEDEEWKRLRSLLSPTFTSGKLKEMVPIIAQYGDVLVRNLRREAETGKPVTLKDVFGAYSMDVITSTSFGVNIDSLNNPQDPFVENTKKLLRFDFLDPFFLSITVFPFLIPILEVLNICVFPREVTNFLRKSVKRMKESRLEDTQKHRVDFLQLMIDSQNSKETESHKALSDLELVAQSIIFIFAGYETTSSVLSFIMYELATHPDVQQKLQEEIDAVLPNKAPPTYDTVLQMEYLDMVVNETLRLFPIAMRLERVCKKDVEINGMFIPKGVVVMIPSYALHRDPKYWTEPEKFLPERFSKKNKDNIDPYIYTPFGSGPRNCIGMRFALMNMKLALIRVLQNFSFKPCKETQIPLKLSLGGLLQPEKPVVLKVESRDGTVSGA
# T1 sequence (K7GMM7 1-1248): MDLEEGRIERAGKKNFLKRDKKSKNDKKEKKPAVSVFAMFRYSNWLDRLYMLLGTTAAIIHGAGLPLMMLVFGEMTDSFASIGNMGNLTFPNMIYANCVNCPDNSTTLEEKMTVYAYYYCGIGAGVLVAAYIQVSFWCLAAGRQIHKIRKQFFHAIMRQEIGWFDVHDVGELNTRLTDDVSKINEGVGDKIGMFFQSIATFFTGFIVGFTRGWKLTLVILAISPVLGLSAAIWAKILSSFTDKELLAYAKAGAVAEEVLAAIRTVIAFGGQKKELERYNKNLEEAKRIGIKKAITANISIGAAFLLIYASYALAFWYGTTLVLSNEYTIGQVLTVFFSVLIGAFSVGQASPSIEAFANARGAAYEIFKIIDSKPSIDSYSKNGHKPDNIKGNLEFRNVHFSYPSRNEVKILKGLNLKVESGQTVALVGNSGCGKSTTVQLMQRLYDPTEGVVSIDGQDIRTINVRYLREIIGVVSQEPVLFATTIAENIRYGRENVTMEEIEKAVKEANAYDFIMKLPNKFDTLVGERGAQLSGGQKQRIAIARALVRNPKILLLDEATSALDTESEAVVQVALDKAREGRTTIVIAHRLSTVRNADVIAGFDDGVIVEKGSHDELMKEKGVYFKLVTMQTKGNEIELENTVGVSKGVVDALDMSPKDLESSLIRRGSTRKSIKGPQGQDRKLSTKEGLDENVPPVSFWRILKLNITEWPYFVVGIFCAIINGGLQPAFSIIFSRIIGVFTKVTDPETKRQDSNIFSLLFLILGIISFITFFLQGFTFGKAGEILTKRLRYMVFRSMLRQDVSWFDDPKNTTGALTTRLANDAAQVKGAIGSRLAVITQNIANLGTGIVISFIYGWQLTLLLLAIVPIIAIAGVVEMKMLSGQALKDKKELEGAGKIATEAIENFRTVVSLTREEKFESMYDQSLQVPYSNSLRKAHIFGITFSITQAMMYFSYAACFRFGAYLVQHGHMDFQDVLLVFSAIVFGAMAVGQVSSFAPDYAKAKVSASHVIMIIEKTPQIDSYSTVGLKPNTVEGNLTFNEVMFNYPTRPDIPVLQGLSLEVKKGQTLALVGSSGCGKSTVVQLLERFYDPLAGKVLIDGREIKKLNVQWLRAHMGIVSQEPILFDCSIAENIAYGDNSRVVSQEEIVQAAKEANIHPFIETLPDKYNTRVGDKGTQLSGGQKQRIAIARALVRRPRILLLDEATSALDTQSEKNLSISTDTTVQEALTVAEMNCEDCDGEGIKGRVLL
molecule,measurement,setting,value
NC(=O)N1c2ccccc2C=Cc2ccccc21 [Carbamazepine],Platform Target,"P-gp, BCRP, and MRP2 [1]",Pgp & BCRP
same,relative AUC (drug absorption) with versus without transport inhibitor,"P-gp, BCRP, or MRP2",did not show the expected effect
same,Literature Target,"Pgp, BCRP, MRP2; [8]",Pgp
CC(C)(C)NCC(O)c1cc(O)cc(O)c1 (stereo not shown) [Terbutaline],Platform Target,"P-gp, BCRP, and MRP2 [1]",no target
same,Literature Target,"Pgp, BCRP, MRP2; [8]",no target
hymecromone sulfate,perfusion on altering P-gp expression,"P-gp [2]; BCRP-specific substrates, p>0.28 one-tailed Z test at maximum siPgp concentration",not affected
same,"R, perfusion increase versus reduced BCRP-expression","BCRP [3]; BCRP-specific substrates, linear relation, FIG. 5C",0.81
O=c1ccc2ccccc2o1 [Coumarin],Platform Target,"P-gp, BCRP, and MRP2 [1]",Pgp
same,Literature Target,"Pgp, BCRP, MRP2; [8]",Pgp
C[C@H]1O[C@@H](O[C@H]2[C@@H](O)C[C@H](O[C@H]3[C@@H](O)C[C@H](O[C@H]4CC[C@@]5(C)[C@H](CC[C@@H]6[C@@H]5C[C@@H](O)[C@]5(C)[C@@H](C7=CC(=O)OC7)CC[C@]65O)C4)O[C@@H]3C)O[C@@H]2C)C[C@H](O)[C@@H]1O [digoxin],perfusion / absorption upon co-treatment with doxycycline,BCRP and MRP2,increased absorption
same,known substrate of transporters,"Pgp, BCRP, MRP2",BCRP and MRP2
same,metabolism through cytochrome P450 3A4,cytochrome P450 3A4,not cytochrome substrates
CC(C)(C)NCC(O)COc1cccc2c1CC(O)C(O)C2 (stereo not shown) [Nadolol],Platform Target,"P-gp, BCRP, and MRP2 [1]",BCRP
same,Literature Target,"Pgp, BCRP, MRP2; [8]",no target
CC(C)c1nc(N(C)S(C)(=O)=O)nc(-c2ccc(F)cc2)c1/C=C/[C@@H](O)C[C@@H](O)CC(=O)O [Rosuvastatin],"p, two-tailed T test, of perfusion increase after knockdown",[4],2%
"siRNA targeting BCRP: siRNA duplex, sense SEQ ID NO: 95, antisense SEQ ID NO: 96 (sense ACUUCUUCCUGGACGUCAUUATT; antisense UAAUGACGUCCAGGAAGAAGUTT; chemistry not given here)","Pearson r, expression level versus siRNA dose",BCRP [5],0.96
COc1cc2c(cc1OC)[C@@H](Cc1ccc(Oc3cc(C[C@@H]4c5cc(OC)c(OC)cc5CCN4C)ccc3O)cc1)N(C)CC2 [dauricine],perfusion on altering P-gp expression,P-gp [2],not affected
same,"R, perfusion increase versus reduced BCRP-expression",BCRP [3]; pig,0.7
CNC(=C[N+](=O)[O-])NCCSCc1ccc(CN(C)C)o1 [Ranitidine],Platform Target,"P-gp, BCRP, and MRP2 [1]",Pgp & BCRP & MRP2
same,Literature Target,"Pgp, BCRP, MRP2; [8]",Pgp & BCRP
N[C@@H](Cc1ccccc1)C(=O)O [L-phenylalanine],Platform Target,"P-gp, BCRP, and MRP2 [1]",no target
same,Literature Target,"Pgp, BCRP, MRP2; [8]",no target
C=CC[C@@H]1/C=C(\C)C[C@H](C)C[C@H](OC)[C@H]2O[C@@](O)(C(=O)C(=O)N3CCCC[C@H]3C(=O)O[C@H](/C(C)=C/[C@@H]3CC[C@@H](O)[C@H](OC)C3)[C@H](C)[C@@H](O)CC1=O)[C@H](C)C[C@@H]2OC [tacrolimus],perfusion / absorption upon co-treatment with doxycycline,"BCRP and MRP2; ex vivo, LC-MS/MS, p<0.05",increased absorption
same,known substrate of transporters,"Pgp, BCRP, MRP2",BCRP and MRP2
same,metabolism through cytochrome P450 3A4,cytochrome P450 3A4,metabolized through cytochrome P450 3A4
C[C@H]1c2cccc(O)c2C(=O)C2=C(O)[C@]3(O)C(=O)C(C(N)=O)=C(O)[C@@H](N(C)C)[C@@H]3[C@@H](O)[C@@H]21 [Doxycycline],Platform Target,"P-gp, BCRP, and MRP2 [1]",BCRP & MRP2
same,relative AUC (drug absorption) with versus without transport inhibitor,"P-gp, BCRP, or MRP2",novel BCRP and MRP2 substrate
same,known substrate of transporters,"Pgp, BCRP, MRP2",P-gp and OAT1
same,Literature Target,"Pgp, BCRP, MRP2; [8]",no target
NCCC(O)(P(=O)(O)O)P(=O)(O)O [Pamidronate disodium salt hydrate],Platform Target,"P-gp, BCRP, and MRP2 [1]",Pgp
same,Literature Target,"Pgp, BCRP, MRP2; [8]",no target
CN(C)C(=O)C(CCN1CCC(O)(c2ccc(Cl)cc2)CC1)(c1ccccc1)c1ccccc1 [Loperamide],Platform Target,"P-gp, BCRP, and MRP2 [6]",no target
same,Literature Target,"Pgp, BCRP, MRP2",no target
CC[C@@H](C(N)=O)N1CCCC1=O [levetiracetam],perfusion / absorption upon co-treatment with doxycycline,BCRP and MRP2,increased absorption
same,known substrate of transporters,"Pgp, BCRP, MRP2",BCRP and MRP2
same,metabolism through cytochrome P450 3A4,cytochrome P450 3A4,not cytochrome substrates
CN1C(C(=O)Nc2ccccn2)=C(O)c2ccccc2S1(=O)=O [Piroxicam],Platform Target,"P-gp, BCRP, and MRP2 [1]",no target
same,Literature Target,"Pgp, BCRP, MRP2; [8]",no target
Ergotamine D-tartrate,Platform Target,"P-gp, BCRP, and MRP2 [1]",Pgp & BCRP & MRP2
same,Literature Target,"Pgp, BCRP, MRP2; [8]",Pgp
CN(C)[C@@H]1C(O)=C(C(N)=O)C(=O)[C@@]2(O)C(O)=C3C(=O)c4c(O)ccc(Cl)c4[C@@](C)(O)[C@H]3C[C@@H]12 [Chlorotetracycline],Platform Target,"P-gp, BCRP, and MRP2 [6]",no target
same,Literature Target,"Pgp, BCRP, MRP2",no target
CC(=O)CC(c1ccccc1)c1c(O)c2ccccc2oc1=O (stereo not shown) [Warfarin],Platform Target,"P-gp, BCRP, and MRP2 [1]",Pgp & BCRP
same,known substrate of transporters,"Pgp, BCRP, MRP2",BCRP and MRP2
same,Literature Target,"Pgp, BCRP, MRP2; [8]",Pgp & BCRP
same,metabolism through cytochrome P450 3A4,cytochrome P450 3A4,metabolized through cytochrome P450 3A4
"siRNA targeting P-gp: siRNA duplex, sense SEQ ID NO: 91, antisense SEQ ID NO: 92 (sense AUGACAGUGUACGCCUAUUAUTT; antisense AUAAUAGGCGUACACUGUCAUTT; sugars from the 5' end r21 d2, backbone not given here)","Pearson r, expression level versus siRNA dose",P-gp [7],0.79
CCOc1nc2cccc(C(=O)OC(C)OC(=O)OC3CCCCC3)c2n1Cc1ccc(-c2ccccc2-c2nnn[nH]2)cc1 (stereo not shown) [Candesartan cilexetil],Platform Target,"P-gp, BCRP, and MRP2 [1]",no target
same,Literature Target,"Pgp, BCRP, MRP2; [8]",Pgp
